Results as given in patent publication US10119972B2, “Reactive labelling compounds and uses thereof” (Academia Sinica, priority 2014, dated 2018).
Entries after “also recorded” stand apart in the source; their conditions may differ.

Experiments:
[1] = Stability in presence of 3-mercaptopropionic acid by 1H-NMR; format: physicochemical; conditions: 25 mM in CDCl3 with 3-mercaptopropionic acid (32 mM), 25° C., 24 h
Protocol: A potential problematic side reaction of cyclooctynes is the addition with proteinic or endogenous thiols to the corresponding vinyl sulfides. To test whether potential non-specific stainings of 101 and the corresponding triazole 111 may occur due to additions of the SH groups to the triple bond or double bond by proteinic or endogenous thiols, the experiment was performed by incubation of 101 and 111 with 3-mercaptopropionic acid in CDCl3 (FIGS. 25 and 26).
A solution of compound 101 and compound 111 (25 mM in CDCl3) was incubated with a solution of 3-mercaptopropionic acid (32 mM in CDCl3) at room temperature (25° C.).
FIG. 25 show ^1H-NMR spectrum in CDCl3 of compound 101 and 3-mercaptopropionic acid alone, and ^1H-NMR spectrum of compound 101 was treated with 3-mercaptopropionic acid at 25° C. for 0 h, 2 h and 24 h.

CL1-5 cells = experiment: Dual fluorescence labeling in cells (SPAAC with CuAAC), confocal microscopy; format: cell-based; conditions: CL1-5 cells with Ac4ManNAl and Ac4GlcNAz; 100 μM coumOCT, 0.1 μM AzBOCEt
Protocol: A dual-labeling experiment was performed using SPAAC in combination with CuAAC for the concurrent fluorescence labeling of two different metabolically incorporated glycoconjugates. Peracetylated N-acetylmannosamine (Ac4ManNAc) and peracetylated N-acetylglucosamine (Ac4GlcNAc) were employed as the control sugars. ManNAc is converted metabolically to sialic acid that is found as a terminal monosaccharide of glycoproteins and glycolipids in cell, whereas GlcNAz is an internal monosaccharide that abundant in the N- and O-linked glycans produced in the endoplasmic reticulum and Golgi. CL1-5 cells were incubated in the presence of both alkyne-containing sugar (Ac4ManNAl) and azido-containing sugar (Ac4GlcNAz) for three days. The cells were stained by SPAAC with coumOCT (for azido sugars), followed by CuAAC with AzBOCEt^6j (for alkynyl sugars), and investigated by confocal microscopy (FIG. 24).
(A) Illustration of the cell labeling experiments using Ac4ManNAl, Ac4GlcNAz, 101 and AzBOCEt. CL1-5 cells were incubated with 100 μM of Ac4ManNAl and Ac4GlcNAz or control sugars (Ac4ManNAc and Ac4GlcNAc) for 3 days, which were treated with 100 μM of probe 101 for 0.5 h under SPAAC conditions, and then incubated with 0.1 μM of AzBOCEt for 1 h under CuAAC conditions. (B) Dual fluorescence imaging in CL1-5 cells. […]

[2] = Fluorescence time course of ligation of 101 with ManNAz; format: physicochemical; conditions: 101 (30 μM) with ManNAz (30 μM), PBS buffer containing 10% DMSO
Protocol: To probe the SPAAC reaction under the conditions that would be more typical for biomolecule labeling, we investigated the fluorescence response and time course for the reaction of 101 with ManNAz.
FIG. 16 describes (a) Absorption and Fluorescence emission spectra (λex=330 nm) of 101 (black), 111 (blue) and 112 (red) (45 μM, PBS buffer containing 10% DMSO, pH 7.4). (b) Time course of normalized fluorescence intensity at 435 nm (λex=330 nm) for the ligation reaction of 101 (30 μM) with N-azidoacetylmannosamine (30 μM) in PBS buffer containing 10% DMSO.
A solution of probe 101 (0.075 μmol) and N-azidoacetylmannosamine (0.075 μmol) in a mixture of 10% DMSO in PBS buffer (2.5 mL) was incubated at 37° C. The fluorescence emission intensity at 435 nm upon excitation at 330 nm was monitored in 5 min intervals. For each point the fluorescence intensity was measured over a period of 5 sec and averaged over a total of 3 points. In a control experiment the same conditions were used except that N-acetylmannosamine (0.075 μmol) was added to the solution.

SMILES: O=c1ccc2cc3c(cc2o1)C#CCCCC3 [Compound 101, 6,7,8,9-Tetrahydro-10,11-didehydro-cycloocta[g]chromen-2(2H)-one]
- thiol-yne or thiol-ene addition / stability in the presence of thiols [1]: inactive; also recorded: high stability
- localization of labeled glycoconjugates (CL1-5 cells): shown only in the cytosol
- time for fluorescence intensity to reach a plateau ([2]; 435 nm (λex=330 nm)): less than 1 h
- ManNAz consumed ([2]; in 40 min): more than 90%
